Measured values published in US8815945B2, “Use of bis [thiohydrazide amide] compounds such as elesclomol for treating cancers” (priority 2010, dated 2014).

Assays:
M14 melanoma cells = assay: Cell viability (CCK8 assay) in M14 melanoma cells; type: cell-based; conditions: Homo sapiens, confluent M14 cells, 48 h incubation
Description: M14 melanoma cells were seeded at 50,000 cells per well of 96-well plate in 100 μl of Dulbecco's […] (DMEM) supplemented with 10% fetal bovine serum. Cells were cultured at 37° C. under 5% CO2-95% air. After 16 hours of incubation, the test compound was added to the cell culture. The compound was first diluted in 100% dimethyl sulfoxide (DMSO) at 400-fold of the final concentrations actually used in the assay. The DMSO solution was next diluted 20 fold with the culture medium, and then finally added to the assay wells at another 20-fold dilution. Assay medium included the test compound with concentrations as indicated with 0.25% DMSO. Cell viability was measured with a CCK8 assay (as described in the Technical Manual for Cell Counting Kit-8, Product #CK04-11, CK04-13 and CK04-20, Dojindo Molecular Technologies, Inc. MD; Tantular, I. S. et al. Tropical Medicine and International Health, 8(6), 569-574, 2003) in the last 15 minutes after a 48 h incubation with the test compound. Each bar of the figure expresses average percent inhibition against vehicle (0.25% DMSO) control (n=4). Error bars indicate standard deviation.

metastatic melanoma = assay: Phase 3 trial in metastatic melanoma, stratified by baseline LDH; type: in vivo, patients; conditions: for median PFS: elesclomol arm
Source text: In a Phase 3 trial in metastatic melanoma, the level of baseline lactate dehydrogenase (LDH) in patients emerged as an important prognostic factor for treatment outcomes with elesclomol. A differential response to treatment with elesclomol was shown, based on the level of baseline LDH in the plasma, an established prognostic biomarker in melanoma and a pre-specified stratification variable in the trial.

769-P = assay: Cell viability (CellTiter Glo ATP) with elesclomol under normoxia/hypoxia, 769-P; type: cell-based; conditions: 769-P cell line, which did not elevate LDH-A activity under hypoxic conditions
Description: FIG. 7 illustrates experimental work done with a variety of cells showing how high levels of HIF-1α and LDH-A activity correlate with the reduced sensitivity to elesclomol. FIGS. 7a and 7b show the reductive (i.e., pyruvate to lactate) LDH activity and HIF-1α level under normoxic and hypoxic conditions. The cells set forth in the Figures and in Table 1, below were seeded at 2 k cells/well in a 96-well plate and cultured under normoxic (20% O2) and hypoxic (0.1% O2) conditions to determine their LDH activity and HIF-1α level. LDH-A activity (measuring reduction of pyruvate to lactate by monitoring NADH at 340 nm) and HIF-1α were analyzed at 24 h. […] An experiment was then run to treat these same cell lines with vehicle or 50 nM elesclomol under normoxic (20% O2) and hypoxia (0.1% O2) conditions for 36 h (FIG. 7d.) Cell viability was evaluated by cellular ATP (CellTiter Glo, Promega).

Caki-2 cells = assay: Cell viability by CellTiter Glo ATP assay at 24 h, Caki-2 cells (FIG. 6b); type: cell-based; conditions: HIF-1α-high Caki-2 cells, 2,500 cells/well
Description: (§1) To further investigate a correlation between HIF-1α and elesclomol potency, lines within the same cancer phenotype but showing distinct levels of HIF1α were evaluated. Caki-1 and -2 are renal cancer cell lines established from the same patient; Caki-2 cells constitutively express HIF-1α while the expression in Caki-1 cells is conditional. VHL protein is a negative regulator of HIF-1α, and a VHL mutation accompanies constitutive HIF-1α expression. In FIG. 6a, cells were serially diluted to the densities indicated. Cell lysates were harvested for ELISA at 24 h after seeding. In FIG. 6b, cells were seeded at 2,500 cells/well-96 plate. Cell viability was evaluated by CellTiter Glo ATP assay at 24 h.

Caki-1 cells = assay: Cell viability by CellTiter Glo ATP assay at 24 h, Caki-1 cells (FIG. 6b); type: cell-based; conditions: HIF-1α-low Caki-1 cells, 2,500 cells/well
Description: as §1

CoCl2-treated M14 cells = assay: Cell viability of CoCl2-treated M14 cells with elesclomol and oxamate (FIG. 10, 11); type: cell-based; conditions: 50 nM elesclomol, 50 μM CoCl2, 25 mM oxamate, 48 h
Description: By inhibiting LDH, the conversion of pyruvate to lactate is shut down, as illustrated in the left panel of FIG. 10. Oxamate, a pyruvate analog and LDH-A inhibitor, was tested on CoCl2-treated M14 cells as illustrated in the right panel of FIG. 10. Cell viability was assessed after 48 h incubation with or without elesclomol and oxamate.
Cell viability was assessed after 48 h incubation with or without 50 nM elesclomol in the presence or absence of 50 μM CoCl2 and 25 mM oxamate.

[1] = tested on: M14 (MDA-MB-435) melanoma cells; assay: Cell viability of sparse and dense M14 (MDA-MB-435) melanoma cells under normoxia or hypoxia (FIG. 5b); type: cell-based; conditions: normoxia (20%) or hypoxia (0.1%), viability at 48 h by cellular ATP
Description: In hypoxic cells, stabilized HIF-1α shunts away energy carbon flow from mitochondria (illustrated graphically in FIG. 4.). The regulatory subunit of HIF-1α is stabilized under hypoxic conditions, and thus-stabilized HIF-1α forms active HIF-1 (HIF-1α/1b heterodimer), whereupon HIF-1 induces LDH-A to convert pyruvate to lactate. The potency of the bis[thiohydrazide amide] compound elesclomol on sparse and dense melanoma cells was assayed under hypoxic and normoxic conditions. Total HIF-1α (cytosolic+nuclear, FIG. 5a) and cell viability of M14 (MDA-MB-435) melanoma cells (FIG. 5b) was evaluated at 12 h and 48 h by ELISA (R&D systems) and cellular ATP levels (CellTiter Glo-Promega), respectively, under normoxia (20%) or hypoxia (0.1%) with sparse (2 k cells/well) or dense (20 k cells/well) in 96-well plates.

HIF-1α = type: cell-based

`CN(NC(=O)CC(=O)NN(C)C(=S)c1ccccc1)C(=S)c1ccccc1` [elesclomol, N-malonyl-bis(N′-methyl-N′-thiobenzoylhydrazide)] was tested, and the IC50 (M14 melanoma cells) was over 12.5 µM, the survival endpoint (metastatic melanoma; elevated LDH population) was “negative impact” and the “median PFS” value (metastatic melanoma; elevated LDH population, 32% of patients) was 1.8 months. For the same compound, the “PFS HR” value (metastatic melanoma; elevated LDH population, p=0.549) was 1.10, the overall survival (metastatic melanoma; normal LDH population) was “no impact on overall survival” and the safety profile (metastatic melanoma; normal LDH population) was “acceptable safety profile”. The “median PFS” value (metastatic melanoma; normal LDH population, 68% of patients) was 3.6 months, the “PFS HR” value (metastatic melanoma; normal LDH population, p=0.027) was 0.76 and the “change in sensitivity to elesclomol under hypoxic conditions” value (769-P) was “no change”. For the same compound, the “sensitivity of cells to elesclomol” value (Caki-2 cells) was “resistant”, the “sensitivity of cells to elesclomol” value (Caki-1 cells) was “sensitive” and the “elesclomol activity upon co-treatment with oxamate (cell viability)” value (CoCl2-treated M14 cells) was “remains active”. The “potency of elesclomol, normoxia vs hypoxia” value [1] was “increased potency”.

For `[Cl-].[Cl-].[Co+2]` [CoCl2], the HIF-1α level (HIF-1α) was “increases” and the “reductive LDH activity” value (HIF-1α) was “increased”.
